# Experimental data as given in patent US10105357B2, “Indication of antibiotic drugs for preparation of cancer inhibition pharmaceutical composition” (LAUNX BIOMEDICAL CO., LTD., priority 2014, dated 2018).
# Where a name gives a salt, the structure may show the parent alone. Read-outs that look alike come from different tables or passages of the source.
# Experiments:
# Format in all cases: cell-based, human
# [1] = test system: HepG2 (Hepatocellular Carcinoma); experiment: Cell viability analysis, hepatic cancer HepG2; details: Homo sapiens, HepG2, 72 h
# [2] = test system: A375 (Amelanotic Melanoma); experiment: Cell viability analysis, skin cancer A375; details: Homo sapiens, A-375, 72 h
# [3] = test system: HL-60 (Acute Promyelocytic Leukemia); experiment: Cell viability analysis, leukemia HL-60; details: Homo sapiens, HL-60, 72 h
# [4] = test system: LoVo (Colorectal Adenocarcinoma); experiment: Cell viability analysis, colon cancer LoVo; details: Homo sapiens, LoVo, 72 h, read-out: cell viability (survival rate), LoVo, drug 10 μM, 72 hours, WST-1, OD450 nm
# [5] = test system: AGS (Gastric Adenocarcinoma); experiment: Cell viability analysis, gastric cancer AGS; details: Homo sapiens, 72 h
# [6] = test system: MKN-45 (Gastric Adenocarcinoma); experiment: Cell viability analysis, gastric cancer MKN-45; details: Homo sapiens, MKN-45, 72 h
# [7] = test system: TSGH-8301 (Urinary Bladder Carcinoma); experiment: Cell viability analysis, bladder cancer TSGH-8301; details: Homo sapiens, 72 h
# [8] = test system: PC3 (p53−) (Prostate Adenocarcinoma); experiment: Cell viability analysis, prostate cancer PC3; details: Homo sapiens, 72 h
# cancer cell lines = experiment: Cell viability analysis (WST-1) on cancer cell lines; details: drug 10 μM, 72 hours, WST-1; Table 3
# [9] = test system: MCF7 (Mammary Gland, Adenocarcinoma); experiment: Cell viability analysis, breast cancer MCF7; details: Homo sapiens, MCF7, 72 h
# [10] = test system: HeLa (Cervix Adenocarcinoma); experiment: Cell viability analysis, cervical cancer HeLa; details: Homo sapiens, HeLa, 72 h
# [11] = test system: A549 (Lung Adenocarcinoma); experiment: Cell viability analysis, lung cancer A549; details: Homo sapiens, A549, 72 h
# [12] = test system: HI650 (Lung Adenocarcinoma); experiment: Cell viability analysis, lung cancer HI650; details: Homo sapiens, NCI-H1650, 72 h
# [13] = drug 10 μM, 72 hours, WST-1, OD450 nm, read-out: cell viability (survival rate), HepG2
# [14] = drug 10 μM, 72 hours, WST-1, OD450 nm, read-out: cell viability (survival rate), A375
# [15] = drug 10 μM, 72 hours, WST-1, OD450 nm, read-out: cell viability (survival rate), HL-60
# [16] = drug 10 μM, 72 hours, WST-1, OD450 nm, read-out: cell viability (survival rate), AGS
# [17] = drug 10 μM, 72 hours, WST-1, OD450 nm, read-out: cell viability (survival rate), MKN-45
# [18] = drug 10 μM, 72 hours, WST-1, OD450 nm, read-out: cell viability (survival rate), TSGH
# [19] = drug 10 μM, 72 hours, WST-1, OD450 nm, read-out: cell viability (survival rate), PC3
# [20] = drug 10 μM, 72 hours, WST-1, OD450 nm, read-out: cell viability (survival rate), MCF7
# [21] = drug 10 μM, 72 hours, WST-1, OD450 nm, read-out: cell viability (survival rate), HeLa
# [22] = drug 10 μM, 72 hours, WST-1, OD450 nm, read-out: cell viability (survival rate), A549
# [23] = drug 10 μM, 72 hours, WST-1, OD450 nm, read-out: cell viability (survival rate), H1650
# [24] = read-out: cell viability (survival rate), HepG2, drug 10 μM, 72 hours, WST-1, OD450 nm
# [25] = read-out: cell viability (survival rate), A375, drug 10 μM, 72 hours, WST-1, OD450 nm
# [26] = read-out: cell viability (survival rate), HL-60, drug 10 μM, 72 hours, WST-1, OD450 nm
# [27] = read-out: cell viability (survival rate), AGS, drug 10 μM, 72 hours, WST-1, OD450 nm
# [28] = read-out: cell viability (survival rate), MKN-45, drug 10 μM, 72 hours, WST-1, OD450 nm
# [29] = read-out: cell viability (survival rate), TSGH, drug 10 μM, 72 hours, WST-1, OD450 nm
# [30] = read-out: cell viability (survival rate), PC3, drug 10 μM, 72 hours, WST-1, OD450 nm
# [31] = read-out: cell viability (survival rate), MCF7, drug 10 μM, 72 hours, WST-1, OD450 nm
# [32] = read-out: cell viability (survival rate), HeLa, drug 10 μM, 72 hours, WST-1, OD450 nm
# [33] = read-out: cell viability (survival rate), A549, drug 10 μM, 72 hours, WST-1, OD450 nm
# [34] = read-out: cell viability (survival rate), H1650, drug 10 μM, 72 hours, WST-1, OD450 nm
SMILES,"viability at 10 µM [1, 13]","viability at 10 µM [2, 14]","viability at 10 µM [3, 15]",viability at 10 µM [4],"viability at 10 µM [5, 16]","viability at 10 µM [6, 17]","viability at 10 µM [7, 18]","viability at 10 µM [8, 19]",inhibition effect on different cancer cell lines (cancer cell lines),"viability at 10 µM [1, 24]","viability at 10 µM [2, 25]","viability at 10 µM [3, 26]","viability at 10 µM [5, 27]","viability at 10 µM [6, 28]","viability at 10 µM [7, 29]","viability at 10 µM [8, 30]","viability at 10 µM [9, 31]","viability at 10 µM [10, 32]","viability at 10 µM [11, 33]","viability at 10 µM [12, 34]",other results
C[C@H](CCC(=O)O)[C@H]1CC[C@H]2[C@@H]3[C@H](O)C[C@@H]4C[C@H](O)CC[C@]4(C)[C@H]3CC[C@]12C [Chenodeoxycholic acid],94.8%,64.2%,118%,82.7%,68.9%,51.8%,88.8%,71.4%,significant inhibition effect,,,,,,,,,,,,"viability at 10 µM [9, 20]: 74.5%; viability at 10 µM [10, 21]: 69.1%; viability at 10 µM [11, 22]: 96.3%; viability at 10 µM [12, 23]: 68.1%"
Oc1c(Cl)cc(Cl)c2cccnc12 [Chloroxine],,,,85.5%,,,,,significant inhibition effect,93.9%,72.5%,50.5%,31.1%,52.7%,62.7%,87.2%,68.7%,71.7%,120%,77.1%,
CCCNC(=O)NS(=O)(=O)c1ccc(Cl)cc1 [Chlorpropamide],92.5%,62.1%,96.7%,59.3%,51.2%,42.7%,59.1%,44.4%,significant inhibition effect,,,,,,,,,,,,"viability at 10 µM [9, 20]: 32.5%; viability at 10 µM [10, 21]: 59.9%; viability at 10 µM [11, 22]: 36.9%; viability at 10 µM [12, 23]: 55.8%"
"Nc1ccn(C[C@@H](CO)OCP(=O)(O)O)c(=O)n1 [Cidofovir (Vistide), Cidofovir]",97.2%,82.6%,112%,82.3%,39.6%,56.9%,49.8%,63.9%,significant inhibition effect,,,,,,,,,,,,"viability at 10 µM [9, 20]: 78.3%; viability at 10 µM [10, 21]: 82.1%; viability at 10 µM [11, 22]: 58.3%; viability at 10 µM [12, 23]: 53.3%"
"NC1CCN(c2c(F)cc3c(=O)c(C(=O)O)cn(C4CC4)c3c2Cl)C1 (stereo not shown) [Clinafloxacin (PD127391), Clinafloxacin]",,,,92.7%,,,,,significant inhibition effect,73.8%,59.3%,71.2%,74.2%,91.3%,83.3%,36.7%,78.6%,97%,67.5%,72.4%,
"Clc1cccc(Cl)c1N=C1NCCN1 [Clonidine hydrochloride (Catapres), Clonidine hydrochloride]",,,,72.1%,,,,,significant inhibition effect,83.7%,62.5%,128%,36.4%,48.8%,28.5%,40.7%,68.8%,72%,37.3%,64.1%,
"Clc1ccccc1C(c1ccccc1)(c1ccccc1)n1ccnc1 [Clotrimazole (Canesten), Clotrimazole]",,,,94.1%,,,,,significant inhibition effect,102%,81.4%,106%,85.7%,53.9%,50.8%,69.3%,56.8%,90%,85.5%,75.9%,
